Assays:
[1] = tested on: PC3 cells; assay: NAMPT Cell Proliferation Assay; format: cell-based; settings: Homo sapiens, PC-3, 120 h, 5 days incubation, cell viability by Cell Titer Glo
Procedure, shortened: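 Seed PC3 at 500 cells/well (RPMI, 10% HI-FBS), attach overnight; add compound, 10-fold series 10 μM → 1×10^−5 μM; incubate 5 d, 37° C/5% CO2; luminescent viability readout; fit % inhibition sigmoidally for IC50.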

[2] = target: NAMPT (Homo sapiens, UniProt P43490); assay: TR-FRET Binding Assay of NAMPT with PRPP; settings: with 200 μM PRPP and 2.5 mM ATP; 2 nM NAMPT, 2 nM probe, 16 hours equilibration
Procedure, shortened: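 Read-out is TR-FRET after a 16 h equilibration allowing possible compound modification by the enzyme. Final mix: 2 nM NAMPT, 2 nM probe, 1 nM Tb-anti-His antibody, 200 μM PRPP, 2.5 mM ATP, 2% DMSO.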

[3] = target: NAMPT (human, recombinant, C-terminally His-tagged) (Homo sapiens, UniProt P43490); assay: Time-Resolved Fluorescence Resonance Energy Transfer (TR-FRET) Binding Assay of NAMPT; settings: without substrates; 6.8 nM NAMPT, 200 nM probe, 3 hours equilibration
Procedure, shortened: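 Competitive binding against an Oregon Green 488 tracer (200 nM), 6.8 nM His-tagged enzyme, 1 nM Tb antibody, 2% DMSO, 3 h at RT. IC50 derived from TR-FRET ratios.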

Chain of NAMPT (P43490 whole entry): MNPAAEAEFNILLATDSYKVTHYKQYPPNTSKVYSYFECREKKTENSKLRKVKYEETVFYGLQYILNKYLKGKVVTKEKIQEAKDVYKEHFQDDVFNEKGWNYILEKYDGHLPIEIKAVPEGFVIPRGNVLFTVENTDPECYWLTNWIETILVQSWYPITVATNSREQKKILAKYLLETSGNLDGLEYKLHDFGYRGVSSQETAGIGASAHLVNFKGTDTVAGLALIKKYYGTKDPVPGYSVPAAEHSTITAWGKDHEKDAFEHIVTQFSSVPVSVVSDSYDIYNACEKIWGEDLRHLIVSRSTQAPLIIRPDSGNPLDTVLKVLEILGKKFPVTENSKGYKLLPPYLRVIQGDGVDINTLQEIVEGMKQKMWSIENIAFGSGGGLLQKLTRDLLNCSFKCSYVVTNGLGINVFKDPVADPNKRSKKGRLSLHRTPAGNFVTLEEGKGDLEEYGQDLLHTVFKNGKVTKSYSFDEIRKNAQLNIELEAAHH
Chain of NAMPT (human, recombinant, C-terminally His-tagged) (P43490 whole entry): as above

`COCC(C)C(=O)N1CC[C@H](Oc2ccc(C(=O)NCc3ccn4ccnc4c3)cc2)C1` (stereo partly drawn) [Example 349, N-(imidazo[1,2-a]pyridin-7-ylmethyl)-4-{[(3S)-1-(3-methoxy-2-methylpropanoyl)pyrrolidin-3-yl]oxy}benzamide] gave an IC50 [1] of 5510 nM, an IC50 [2] of 0.736 nM and an IC50 [3] of 4110 nM.
With `CCCC(=O)N1CC[C@H](Oc2ccc(C(=O)NCc3ccn4ccnc4c3)cc2)C1` [Example 350, 4-{[(3S)-1-butanoylpyrrolidin-3-yl]oxy}-N-(imidazo[1,2-a]pyridin-7-ylmethyl)benzamide] the IC50 [1] was 8170 nM, the IC50 [2] was 0.795 nM and the IC50 [3] was greater than 10000 nM.
Molecule `CC(C)C(=O)N1CC[C@H](Oc2ccc(C(=O)NCc3ccn4ccnc4c3)cc2)C1` [Example 351, N-(imidazo[1,2-a]pyridin-7-ylmethyl)-4-{[(3S)-1-(2-methylpropanoyl)pyrrolidin-3-yl]oxy}benzamide] has an IC50 [1] of 8110 nM, an IC50 [2] of 0.792 nM and an IC50 [3] of 8390 nM.
With `O=C(NCc1ccn2ccnc2c1)c1ccc(O[C@H]2CCN(C(=O)C3CC3)C2)cc1` [Example 352, 4-{[(3S)-1-(cyclopropylcarbonyl)pyrrolidin-3-yl]oxy}-N-(imidazo[1,2-a]pyridin-7-ylmethyl)benzamide] the IC50 [1] was 9800 nM, the IC50 [2] was 1.06 nM and the IC50 [3] was greater than 10000 nM.
`O=C(NCc1ccn2ccnc2c1)c1ccc(O[C@H]2CCN(C(=O)c3ccccc3)C2)cc1` [Example 353, 4-{[(3S)-1-benzoylpyrrolidin-3-yl]oxy}-N-(imidazo[1,2-a]pyridin-7-ylmethyl)benzamide] was tested, and the IC50 [1] was 7510 nM, the IC50 [2] was 0.47 nM and the IC50 [3] was 3170 nM.
`CC(C)(O)CC(=O)N1CC[C@H](Oc2ccc(C(=O)NCc3ccn4ccnc4c3)cc2)C1` [Example 354, 4-{[(3S)-1-(3-hydroxy-3-methylbutanoyl)pyrrolidin-3-yl]oxy}-N-(imidazo[1,2-a]pyridin-7-ylmethyl)benzamide] showed an IC50 [1] of 7490 nM, an IC50 [2] of 0.526 nM and an IC50 [3] greater than 10000 nM.
With `O=C(NCc1ccn2ccnc2c1)c1cnc(N2CCN(C(=O)c3ccccc3)CC2)s1` [Example 355, 2-(4-benzoylpiperazin-1-yl)-N-(imidazo[1,2-a]pyridin-7-ylmethyl)-1,3-thiazole-5-carboxamide] the IC50 [1] was 1940 nM, the IC50 [2] was 0.169 nM and the IC50 [3] was 831 nM.
`CC(C)N1CCN(c2ncc(C(=O)NCc3ccn4ccnc4c3)s2)CC1` [Example 356, N-(imidazo[1,2-a]pyridin-7-ylmethyl)-2-[4-(propan-2-yl)piperazin-1-yl]-1,3-thiazole-5-carboxamide] showed an IC50 [1] of 1020 nM, an IC50 [2] of 0.169 nM and an IC50 [3] greater than 10000 nM.
`COCCN1CCN(c2ncc(C(=O)NCc3ccn4ccnc4c3)s2)CC1` [Example 357, N-(imidazo[1,2-a]pyridin-7-ylmethyl)-2-[4-(2-methoxyethyl)piperazin-1-yl]-1,3-thiazole-5-carboxamide] was tested, and the IC50 [1] was 6740 nM, the IC50 [2] was 0.291 nM and the IC50 [3] was greater than 10000 nM.
`CC(C)CCNC(=O)c1ccc(C(=O)NCc2ccc3nccn3c2)cc1` [Example 358, N-(imidazo[1,2-a]pyridin-6-ylmethyl)-N′-(3-methylbutyl)benzene-1,4-dicarboxamide] showed an IC50 [1] of 2260 nM, an IC50 [2] of 2.19 nM and an IC50 [3] of 1840 nM.
For `O=C(NCc1ccc2nccn2c1)c1ccc(C(=O)NC[C@@H]2CCOC2)cc1` [Example 359, N-(imidazo[1,2-a]pyridin-6-ylmethyl)-N′-[(3S)-tetrahydrofuran-3-ylmethyl]benzene-1,4-dicarboxamide], the IC50 [1] was 8770 nM, the IC50 [2] was 2.5 nM and the IC50 [3] was greater than 10000 nM.
For `CCCn1cc(-c2ccc(NC(=O)NCc3ccc4nccn4c3)cc2)cn1` [Example 360, 1-(imidazo[1,2-a]pyridin-6-ylmethyl)-3-[4-(1-propyl-1H-pyrazol-4-yl)phenyl]urea], the IC50 [1] was 663 nM, the IC50 [2] was 0.717 nM and the IC50 [3] was 291 nM.
For `O=C(NCc1ccn2ccnc2c1)c1cnc(-c2ccccc2)s1` [Example 361, N-(imidazo[1,2-a]pyridin-7-ylmethyl)-2-phenyl-1,3-thiazole-5-carboxamide], the IC50 [1] was greater than 10000 nM, the IC50 [2] was 1.94 nM and the IC50 [3] was 5030 nM.
`CC(C)Cn1cc(-c2ccc(NC(=O)NCc3ccc4nccn4c3)cc2)cn1` [Example 362, 1-(imidazo[1,2-a]pyridin-6-ylmethyl)-3-{4-[1-(2-methylpropyl)-1H-pyrazol-4-yl]phenyl}urea] showed an IC50 [1] of 106 nM, an IC50 [2] of 0.256 nM and an IC50 [3] of 143 nM.
`Cn1nccc1-c1ccc(C(=O)NCc2ccn3ccnc3c2)s1` [Example 363, N-(imidazo[1,2-a]pyridin-7-ylmethyl)-5-(1-methyl-1H-pyrazol-5-yl)thiophene-2-carboxamide] was tested, and the IC50 [1] was 7660 nM, the IC50 [2] was 0.305 nM and the IC50 [3] was 588 nM.
`CC(C)(C)OC(=O)N1CC(c2ccc(NC(=O)NCc3ccn4ccnc4c3)cc2)C1` [Example 364, tert-butyl 3-(4-{[(imidazo[1,2-a]pyridin-7-ylmethyl)carbamoyl]amino}phenyl)azetidine-1-carboxylate] showed an IC50 [1] of 31 nM, an IC50 [2] of 0.172 nM and an IC50 [3] of 135 nM.
For `CC(C)(C)OC(=O)N1CCC(Oc2ccc(C(=O)NCc3ccn4ccnc4c3)cc2)CC1` [Example 365, tert-butyl 4-{4-[(imidazo[1,2-a]pyridin-7-ylmethyl)carbamoyl]phenoxy}piperidine-1-carboxylate], the IC50 [1] was 332 nM, the IC50 [2] was 0.171 nM and the IC50 [3] was 1340 nM.
In the case of `CC(C)(C)OC(=O)N1CCC(Oc2ccc(NC(=O)NCc3ccn4ccnc4c3)cc2)CC1` [Example 366, tert-butyl 4-(4-{[(imidazo[1,2-a]pyridin-7-ylmethyl)carbamoyl]amino}phenoxy)piperidine-1-carboxylate], the IC50 [1] is reported as 21.5 nM, the IC50 [2] is reported as 0.435 nM and the IC50 [3] is reported as 146 nM.
`CC(C)C(=O)N1CCC(c2ccc(C(=O)NCc3ccn4ccnc4c3)cc2)C1` (stereo not drawn) [Example 367, N-(imidazo[1,2-a]pyridin-7-ylmethyl)-4-[1-(2-methylpropanoyl)pyrrolidin-3-yl]benzamide] was tested, and the IC50 [1] was 601 nM, the IC50 [2] was 0.18 nM and the IC50 [3] was 650 nM.
In the case of `CC[C@H](C)C(=O)N1CCC(c2ccc(C(=O)NCc3ccn4ccnc4c3)cc2)C1` (stereo partly drawn) [Example 368, N-(imidazo[1,2-a]pyridin-7-ylmethyl)-4-{1-[(2S)-2-methylbutanoyl]pyrrolidin-3-yl}benzamide], the IC50 [1] is reported as 48.4 nM, the IC50 [2] is reported as 0.317 nM and the IC50 [3] is reported as 602 nM.
With `O=C(NCc1ccn2ccnc2c1)c1ccc(C2CCN(C(=O)CC3CC3)C2)cc1` (stereo not drawn) [Example 369, 4-[1-(cyclopropylacetyl)pyrrolidin-3-yl]-N-(imidazo[1,2-a]pyridin-7-ylmethyl)benzamide] the IC50 [1] was 738 nM, the IC50 [2] was 0.337 nM and the IC50 [3] was 429 nM.
Molecule `O=C(NCc1ccn2ccnc2c1)c1ccc(C2CCN(C(=O)c3ccccc3)C2)cc1` (stereo not drawn) [Example 370, 4-(1-benzoylpyrrolidin-3-yl)-N-(imidazo[1,2-a]pyridin-7-ylmethyl)benzamide] has an IC50 [1] of 9.93 nM, an IC50 [2] of 0.175 nM and an IC50 [3] of 47.6 nM.
`CC(C)OCC(=O)N1CCC(c2ccc(C(=O)NCc3ccn4ccnc4c3)cc2)C1` (stereo not drawn) [Example 371, N-(imidazo[1,2-a]pyridin-7-ylmethyl)-4-{1-[(propan-2-yloxy)acetyl]pyrrolidin-3-yl}benzamide] gave an IC50 [1] of 820 nM, an IC50 [2] of 0.298 nM and an IC50 [3] of 1440 nM.
`CC(C)(O)C(=O)N1CCC(c2ccc(C(=O)NCc3ccn4ccnc4c3)cc2)C1` (stereo not drawn) [Example 372, 4-[1-(2-hydroxy-2-methylpropanoyl)pyrrolidin-3-yl]-N-(imidazo[1,2-a]pyridin-7-ylmethyl)benzamide] gave an IC50 [1] of 868 nM, an IC50 [2] of 0.46 nM and an IC50 [3] of 2440 nM.
`O=C(NCc1ccn2ccnc2c1)c1ccc(C2CCN(C(=O)[C@H]3CCCO3)C2)cc1` (stereo partly drawn) [Example 373, N-(imidazo[1,2-a]pyridin-7-ylmethyl)-4-{1-[(2R)-tetrahydrofuran-2-ylcarbonyl]pyrrolidin-3-yl}benzamide] gave an IC50 [1] of 585 nM, an IC50 [2] of 0.36 nM and an IC50 [3] of 3040 nM.
For `O=C(NCc1ccn2ccnc2c1)c1ccc(C2CCN(C(=O)[C@@H]3CCCO3)C2)cc1` (stereo partly drawn) [Example 374, N-(imidazo[1,2-a]pyridin-7-ylmethyl)-4-{1-[(2S)-tetrahydrofuran-2-ylcarbonyl]pyrrolidin-3-yl}benzamide], the IC50 [1] was 792 nM, the IC50 [2] was 0.292 nM and the IC50 [3] was 1670 nM.
For `O=C(NCc1ccn2ccnc2c1)c1ccc(C2CCN(C(=O)[C@H]3CCOC3)C2)cc1` (stereo partly drawn) [Example 375, N-(imidazo[1,2-a]pyridin-7-ylmethyl)-4-{1-[(3S)-tetrahydrofuran-3-ylcarbonyl]pyrrolidin-3-yl}benzamide], the IC50 [1] was greater than 10000 nM, the IC50 [2] was 0.241 nM and the IC50 [3] was 986 nM.
`O=C(NCc1ccn2ccnc2c1)c1ccc(C2CCN(C(=O)C3CCOCC3)C2)cc1` (stereo not drawn) [Example 376, N-(imidazo[1,2-a]pyridin-7-ylmethyl)-4-[1-(tetrahydro-2H-pyran-4-ylcarbonyl)pyrrolidin-3-yl]benzamide] was tested, and the IC50 [1] was greater than 10000 nM, the IC50 [2] was 0.305 nM and the IC50 [3] was 1050 nM.
Molecule `O=C(NCc1ccn2ccnc2c1)c1ccc(C2CCN(C(=O)C3COCCO3)C2)cc1` (stereo not drawn) [Example 377, 4-[1-(1,4-dioxan-2-ylcarbonyl)pyrrolidin-3-yl]-N-(imidazo[1,2-a]pyridin-7-ylmethyl)benzamide] has an IC50 [1] greater than 10000 nM, an IC50 [2] of 0.275 nM and an IC50 [3] of 1670 nM.

From patent publication US9187472B2 (AbbVie Inc., priority 2012, dated 2015)
